Measured values: patent US20230139171A1 (SITA Information Networking Computing UK Limited, priority 2019, published 2023)

Key:
Assay type in all cases: cell-based
human TLR7 = target: T1, human TLR7 (Homo sapiens, UniProt Q9NYK1); assay: TLR7 inhibition reporter assay (HEK-Blue cells, SEAP reporter, gardiquimod stimulation); settings: HEK-Blue cells overexpressing human TLR7, SEAP reporter, gardiquimod 7.5 μM; read-out: TLR7 IC50
T1 construct: host or cells: HEK-Blue cells
T1 sequence (Q9NYK1 27-1049): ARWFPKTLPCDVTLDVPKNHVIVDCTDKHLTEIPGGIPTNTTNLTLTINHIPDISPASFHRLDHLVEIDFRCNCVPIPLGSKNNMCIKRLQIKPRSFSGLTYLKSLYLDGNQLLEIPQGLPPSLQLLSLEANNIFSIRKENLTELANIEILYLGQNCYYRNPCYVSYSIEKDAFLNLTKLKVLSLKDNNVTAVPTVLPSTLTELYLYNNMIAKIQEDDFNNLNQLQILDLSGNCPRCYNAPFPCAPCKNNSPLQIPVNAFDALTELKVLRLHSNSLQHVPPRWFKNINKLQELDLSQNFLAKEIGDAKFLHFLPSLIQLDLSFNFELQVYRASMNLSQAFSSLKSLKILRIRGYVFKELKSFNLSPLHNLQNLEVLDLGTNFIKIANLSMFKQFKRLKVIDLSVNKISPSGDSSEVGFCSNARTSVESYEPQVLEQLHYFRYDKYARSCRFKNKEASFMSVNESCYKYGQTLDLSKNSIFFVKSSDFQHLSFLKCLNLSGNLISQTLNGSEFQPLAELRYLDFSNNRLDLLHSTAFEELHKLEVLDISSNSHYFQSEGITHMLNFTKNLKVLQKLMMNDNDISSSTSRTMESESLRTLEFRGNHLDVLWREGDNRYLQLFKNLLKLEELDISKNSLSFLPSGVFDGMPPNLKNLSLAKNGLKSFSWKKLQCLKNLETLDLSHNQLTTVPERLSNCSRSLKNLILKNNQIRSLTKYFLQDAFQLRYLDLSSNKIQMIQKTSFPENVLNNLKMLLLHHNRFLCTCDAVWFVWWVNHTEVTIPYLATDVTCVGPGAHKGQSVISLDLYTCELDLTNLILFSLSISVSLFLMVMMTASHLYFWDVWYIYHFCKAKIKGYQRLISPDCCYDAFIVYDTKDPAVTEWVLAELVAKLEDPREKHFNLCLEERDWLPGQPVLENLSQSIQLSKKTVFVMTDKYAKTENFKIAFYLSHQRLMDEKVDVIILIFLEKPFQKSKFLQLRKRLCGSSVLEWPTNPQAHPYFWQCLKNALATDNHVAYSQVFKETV
Outline: (§1)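 Dose–response from 0.05 nM to 50 μM was run in HEK-Blue human TLR7, TLR8 and TLR9 reporter cells. After 30 min at room temperature with compound, ligand was added (TLR7 gardiquimod 7.5 μM; TLR8 R848 15.9 μM; TLR9 ODN2006 5 nM) and SEAP measured next day, at 22 h.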

human TLR9 = target: T2, human TLR9 (Homo sapiens, UniProt Q9NR96); assay: TLR9 inhibition reporter assay (HEK-Blue cells, SEAP reporter, ODN2006 stimulation); settings: HEK-Blue cells overexpressing human TLR9, SEAP reporter, ODN2006 5 nM
T2 construct: host or cells: HEK-Blue cells
T2 sequence (Q9NR96 26-1032): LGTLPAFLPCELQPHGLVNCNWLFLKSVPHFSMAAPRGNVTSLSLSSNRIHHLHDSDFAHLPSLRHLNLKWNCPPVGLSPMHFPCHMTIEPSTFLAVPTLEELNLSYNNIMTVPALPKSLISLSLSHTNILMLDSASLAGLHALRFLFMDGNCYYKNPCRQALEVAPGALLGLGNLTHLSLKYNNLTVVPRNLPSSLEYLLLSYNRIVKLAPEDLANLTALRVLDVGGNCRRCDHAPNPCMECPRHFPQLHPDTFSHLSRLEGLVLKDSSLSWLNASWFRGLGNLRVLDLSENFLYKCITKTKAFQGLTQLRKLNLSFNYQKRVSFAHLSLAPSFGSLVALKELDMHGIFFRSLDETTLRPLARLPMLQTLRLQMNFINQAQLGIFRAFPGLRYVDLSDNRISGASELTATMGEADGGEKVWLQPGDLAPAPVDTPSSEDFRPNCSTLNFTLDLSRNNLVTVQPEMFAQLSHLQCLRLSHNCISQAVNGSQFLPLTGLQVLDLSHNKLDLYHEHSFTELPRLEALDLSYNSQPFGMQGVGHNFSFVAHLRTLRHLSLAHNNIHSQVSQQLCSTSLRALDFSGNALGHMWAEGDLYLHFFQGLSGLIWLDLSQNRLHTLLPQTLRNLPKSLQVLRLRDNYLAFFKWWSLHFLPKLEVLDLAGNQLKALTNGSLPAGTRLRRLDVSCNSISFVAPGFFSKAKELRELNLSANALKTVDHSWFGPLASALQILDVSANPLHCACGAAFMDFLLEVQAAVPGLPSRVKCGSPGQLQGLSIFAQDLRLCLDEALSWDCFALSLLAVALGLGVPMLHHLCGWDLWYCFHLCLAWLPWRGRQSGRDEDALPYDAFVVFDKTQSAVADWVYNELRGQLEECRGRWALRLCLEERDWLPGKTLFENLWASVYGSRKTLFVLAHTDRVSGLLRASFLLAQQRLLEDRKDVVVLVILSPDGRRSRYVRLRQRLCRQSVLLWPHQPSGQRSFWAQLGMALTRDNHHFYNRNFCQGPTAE
Outline: as §1

human TLR8 = target: T3, human TLR8 (Homo sapiens, UniProt Q9NR97); assay: TLR8 inhibition reporter assay (HEK-Blue cells, SEAP reporter, R848 stimulation); settings: HEK-Blue cells overexpressing human TLR8, SEAP reporter, R848 15.9 μM; read-out: TLR8 IC50
T3 construct: host or cells: HEK-Blue cells
T3 sequence (Q9NR97 27-1041): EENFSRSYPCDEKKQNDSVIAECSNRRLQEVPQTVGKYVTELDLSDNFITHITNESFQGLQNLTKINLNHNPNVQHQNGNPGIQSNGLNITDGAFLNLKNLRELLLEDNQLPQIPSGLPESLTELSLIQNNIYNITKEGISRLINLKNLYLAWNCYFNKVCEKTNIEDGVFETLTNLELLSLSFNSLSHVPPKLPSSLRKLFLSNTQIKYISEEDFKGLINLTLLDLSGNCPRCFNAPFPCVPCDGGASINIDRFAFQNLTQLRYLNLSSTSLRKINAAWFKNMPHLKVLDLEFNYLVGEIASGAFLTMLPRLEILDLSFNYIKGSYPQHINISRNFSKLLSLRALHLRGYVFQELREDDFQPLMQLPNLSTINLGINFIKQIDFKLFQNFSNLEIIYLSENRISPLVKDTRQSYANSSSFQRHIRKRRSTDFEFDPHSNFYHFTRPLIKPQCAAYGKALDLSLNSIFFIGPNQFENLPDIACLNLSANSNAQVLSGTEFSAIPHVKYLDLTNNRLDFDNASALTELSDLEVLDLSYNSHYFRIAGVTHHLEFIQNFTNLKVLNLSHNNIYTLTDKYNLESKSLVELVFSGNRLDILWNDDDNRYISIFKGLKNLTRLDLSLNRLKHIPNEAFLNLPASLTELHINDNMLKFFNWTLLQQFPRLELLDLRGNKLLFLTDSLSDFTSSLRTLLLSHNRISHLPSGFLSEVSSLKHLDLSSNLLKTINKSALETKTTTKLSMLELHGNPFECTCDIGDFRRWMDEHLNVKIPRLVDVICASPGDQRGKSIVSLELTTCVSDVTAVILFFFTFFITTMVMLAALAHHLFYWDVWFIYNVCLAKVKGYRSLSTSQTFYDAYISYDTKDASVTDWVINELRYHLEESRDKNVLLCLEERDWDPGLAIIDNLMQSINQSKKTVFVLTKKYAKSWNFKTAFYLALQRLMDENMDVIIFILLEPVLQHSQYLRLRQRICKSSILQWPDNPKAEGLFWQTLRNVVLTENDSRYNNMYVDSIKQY
Outline: as §1

SMILES | IC50 (human TLR7) [nM] | IC50 (human TLR9) [nM] | IC50 (human TLR8) [nM]
COc1cc(-c2[nH]c3sc(C4CCC(N5CCC6(CC5)COC6)CC4)nc3c2C(C)C)cn2ncnc12 (single isomer, unassigned) [Example 112, 7-(4-(6-isopropyl-5-(8-methoxy-[1,2,4]triazolo[1,5-a]pyridin-6-yl)-4H-pyrrolo[3,2-d]thiazol-2-yl)cyclohexyl)-2-oxa-7-azaspiro[3.5]nonane] | 11.4 | > 50000 | 28.3
COc1cc(-c2[nH]c3sc(C4CCC(N5CCC6(CCNC6)C5)CC4)nc3c2C(C)C)cn2ncnc12 (single isomer, unassigned) [Example 115, 2-(4-(2,7-diazaspiro[4.4]nonan-2-yl)cyclohexyl)-6-isopropyl-5-(8-methoxy-[1,2,4]triazolo[1,5-a]pyridin-6-yl)-4H-pyrrolo[3,2-d]thiazole] | 11.7 | 1210 | 17
COc1cc(-c2[nH]c3sc(C4CCC(NC5CC6(CNC6)C5)CC4)nc3c2C(C)C)cn2ncnc12 (single isomer, unassigned) [Example 117, N-(4-(6-isopropyl-5-(8-methoxy-[1,2,4]triazolo[1,5-a]pyridin-6-yl)-4H-pyrrolo[3,2-d]thiazol-2-yl)cyclohexyl)-2-azaspiro[3.3]heptan-6-amine] | 5.72 | 7510 | 22.9
COc1cc(-c2[nH]c3sc(C4CCC(N5CCNC(=O)C5)CC4)nc3c2C(C)C)cn2ncnc12 (single isomer, unassigned) [Example 121, 4-(4-(6-isopropyl-5-(8-methoxy-[1,2,4]triazolo[1,5-a]pyridin-6-yl)-4H-pyrrolo[3,2-d]thiazol-2-yl)cyclohexyl) piperazin-2-one] | 8.51 | > 50000 | 57.3

The next compounds have a lower IC50 (human TLR7) than those just listed; values first:

IC50 (human TLR7) [nM] | IC50 (human TLR9) [nM] | IC50 (human TLR8) [nM] | SMILES
2.97 | 3930 | 33.7 | COc1cc(-c2[nH]c3sc(C4CCC(N5CC6(CCOCC6)C5)CC4)nc3c2C(C)C)cn2ncnc12 (single isomer, unassigned) [Example 111, 2-(4-(6-isopropyl-5-(8-methoxy-[1,2,4]triazolo[1,5-a]pyridin-6-yl)-4H-pyrrolo[3,2-d]thiazol-2-yl)cyclohexyl)-7-oxa-2-azaspiro[3.5]nonane]
1.09 | 7800 | 27.1 | COc1cc(-c2[nH]c3sc(C4CCC(N5CCC6(CC5)COC6)CC4)nc3c2C(C)C)cn2ncnc12 (single isomer, unassigned) [Example 113, 7-(4-(6-isopropyl-5-(8-methoxy-[1,2,4]triazolo[1,5-a]pyridin-6-yl)-4H-pyrrolo[3,2-d]thiazol-2-yl)cyclohexyl)-2-oxa-7-azaspiro[3.5]nonane]
3.63 | 1460 | 1.4 | COc1cc(-c2[nH]c3sc(C4CCC(N5CCC6(CCNC6)C5)CC4)nc3c2C(C)C)cn2ncnc12 (single isomer, unassigned) [Example 114, 2-(4-(2,7-diazaspiro[4.4]nonan-2-yl)cyclohexyl)-6-isopropyl-5-(8-methoxy-[1,2,4]triazolo[1,5-a]pyridin-6-yl)-4H-pyrrolo[3,2-d]thiazole]
3.11 | 3880 | 1.91 | COc1cc(-c2[nH]c3sc(C4CCC(NC5CC6(CNC6)C5)CC4)nc3c2C(C)C)cn2ncnc12 (single isomer, unassigned) [Example 116, N-(4-(6-isopropyl-5-(8-methoxy-[1,2,4]triazolo[1,5-a]pyridin-6-yl)-4H-pyrrolo[3,2-d]thiazol-2-yl)cyclohexyl)-2-azaspiro[3.3]heptan-6-amine]
2 | 3300 | 1.26 | COc1cc(-c2[nH]c3sc(C4CCC(N5CC(O)(C(F)(F)F)C5)CC4)nc3c2C(C)C)cn2ncnc12 (single isomer, unassigned) [Example 118, 1-(4-(6-isopropyl-5-(8-methoxy-[1,2,4]triazolo[1,5-a]pyridin-6-yl)-4H-pyrrolo[3,2-d]thiazol-2-yl)cyclohexyl)-3-(trifluoromethyl)azetidin-3-ol]
3.33 | > 50000 | 54.2 | COc1cc(-c2[nH]c3sc(C4CCC(N5CC(O)(C(F)(F)F)C5)CC4)nc3c2C(C)C)cn2ncnc12 (single isomer, unassigned) [Example 119, 1-(4-(6-isopropyl-5-(8-methoxy-[1,2,4]triazolo[1,5-a]pyridin-6-yl)-4H-pyrrolo[3,2-d]thiazol-2-yl)cyclohexyl)-3-(trifluoromethyl)azetidin-3-ol]
4.19 | > 50000 | 16.7 | COc1cc(-c2[nH]c3sc(C4CCC(N5CCNC(=O)C5)CC4)nc3c2C(C)C)cn2ncnc12 (single isomer, unassigned) [Example 120, 4-(4-(6-isopropyl-5-(8-methoxy-[1,2,4]triazolo[1,5-a]pyridin-6-yl)-4H-pyrrolo[3,2-d]thiazol-2-yl)cyclohexyl) piperazin-2-one]
